# Biological target: PRMT5/MEP50 (Homo sapiens (Human), UniProt O14744)
# Test: PRMT5 Biochemical Assay (PRMT5/MEP50 enzyme assay on peptide substrate, 3H-SAM Flashplate)
# Details: PRMT5/MEP50 biochemical assay; read-out: Biochemical IC50
# Excerpt: S-adenosylmethionine (SAM), S-adenosylhomocysteine (SAH), bicine, KCl, Tween20, dimethylsulfoxide (DMSO), bovine skin gelatin (BSG), and Tris(2-carboxyethyl)phosphine hydrochloride solution (TCEP) were purchased from Sigma-Aldrich at the highest level of purity possible. ^3H-SAM was purchase from American Radiolabeled Chemicals with a specific activity of 80 Ci/mmol. 384-well streptavidin Flashplates were purchased from PerkinElmer.
# Peptide representative of human histone H4 residues 1-15 was synthesized with a C-terminal linker-affinity tag motif and a C-terminal amide cap by 21st Century Biochemicals. […] The sequence was Ac-[…][K-Biot]amide (SEQ ID NO.:3).
# Full-length human MEP50 (NM_024102) clone was amplified from a human testis cDNA library incorporating a 5′ sequence encoding a 6-histidine tag (MHHHHHH) (SEQ ID NO.:5) fused directly to Arg 2 of MEP50. The amplified genes were subcloned into pENTR/D/TEV (Life Technologies) and subsequently transferred by Gateway™ attL×attR recombination to pDEST8 baculvirus expression vector (Life Technologies).
# Recombinant baculovirus and Baculovirus-Infected Insect Cells (BIIC) were generated according to Bac-to-Bac kit instructions (Life Technologies) and Wasilko, 2006, respectively. Protein over-expression was accomplished by infecting exponentially growing Spodoptera frugiperda (SF9) cell culture at 1.2×10^6 cell/ml with a 5000 fold dilution of BIIC stock. Infections were carried out at 27° C. for 72 hours, harvested by centrifugation, and stored at −80° C. for purification.
# Flag-PRMT5/6His-MeP50 was eluted with 300 mM Imidazole in the same buffer. […] Reference: Wasilko, D. J. and S. E. Lee: “TIPS: titerless infected-cells preservation and scale-up” Bioprocess J., 5 (2006), pp. 29-32.
# General Procedure for PRMT5/MEP50 Enzyme Assays on Peptide Substrates.
# The assays were all performed in a buffer consisting of 20 mM Bicine (pH=7.6), 1 mM TCEP, 0.005% BSG, and 0.002% Tween20, prepared on the day of use. Compounds in 100% DMSO (1 ul) were spotted into a polypropylene 384-well V-bottom plates (Greiner) using a Platemate Plus outfitted with a 384-channel head (Thermo Scientific). DMSO (1 ul) was added to Columns 11, 12, 23, 24, rows A-H for the maximum signal control and 1 ul of SAH, a known product and inhibitor of PRMT5/MEP50, was added to columns 11, 12, 23, 24, rows I-P for the minimum signal control. A cocktail (40 ul) containing the PRMT5/MEP50 enzyme and the peptide was added by Multidrop Combi (Thermo-Fisher). The compounds were allowed to incubate with PRMT5/MEP50 for 30 min at 25 degrees Celsius, then a cocktail (10 ul) containing ^3H-SAM was added to initiate the reaction (final volume=51 ul). The final concentrations of the components were as follows: PRMT5/MEP50 was 4 nM, ^3H-SAM was 75 nM, peptide was 40 nM, SAH in the minimum signal control wells was 100 uM, and the DMSO concentration was 1%. The assays were stopped by the addition of non-radioactive SAM (10 ul) to a final concentration of 600 uM, which dilutes the ^3H-SAM to a level where its incorporation into the peptide substrate is no longer detectable. 50 ul of the reaction in the 384-well polypropylene plate was then transferred to a 384-well Flashplate and the biotinylated peptides were allowed to bind to the streptavidin surface for at least 1 hour before being washed three times with 0.1% Tween20 in a Biotek ELx405 plate washer. The plates were then read in a PerkinElmer TopCount plate reader to measure the quantity of ^3H-labeled peptide bound to the Flashplate surface, measured as disintegrations per minute (dpm) or alternatively, referred to as counts per minute (cpm).
# [formula] Where dpm=disintegrations per minute, cmpd=signal in assay well, and min and max are the respective minimum and maximum signal controls.
# [formula] Where top and bottom are the normally allowed to float, but may be fixed at 100 or 0 respectively in a 3-parameter fit.
# Sequence of PRMT5/MEP50 (O14744 other isoform, or with tags, fused parts or gaps): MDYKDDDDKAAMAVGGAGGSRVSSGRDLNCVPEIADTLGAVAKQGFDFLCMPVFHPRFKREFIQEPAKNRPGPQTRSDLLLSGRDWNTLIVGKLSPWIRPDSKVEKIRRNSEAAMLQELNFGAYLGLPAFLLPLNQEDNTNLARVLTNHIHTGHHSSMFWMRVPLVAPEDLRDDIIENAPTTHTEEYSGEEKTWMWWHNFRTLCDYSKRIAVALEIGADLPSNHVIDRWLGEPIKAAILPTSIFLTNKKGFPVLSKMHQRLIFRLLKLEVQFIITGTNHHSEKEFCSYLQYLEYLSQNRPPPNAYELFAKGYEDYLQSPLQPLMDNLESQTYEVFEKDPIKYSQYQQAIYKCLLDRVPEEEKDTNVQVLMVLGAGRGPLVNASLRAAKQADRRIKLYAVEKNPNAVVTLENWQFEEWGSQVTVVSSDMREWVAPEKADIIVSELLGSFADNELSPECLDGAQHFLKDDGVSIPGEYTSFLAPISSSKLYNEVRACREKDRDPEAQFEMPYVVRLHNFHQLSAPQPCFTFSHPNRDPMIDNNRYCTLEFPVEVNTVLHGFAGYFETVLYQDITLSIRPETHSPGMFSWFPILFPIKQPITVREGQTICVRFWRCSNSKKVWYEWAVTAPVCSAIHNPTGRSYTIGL
# Sequence of PRMT5/MEP50 (Q9BQA1 other isoform, or with tags, fused parts or gaps partner): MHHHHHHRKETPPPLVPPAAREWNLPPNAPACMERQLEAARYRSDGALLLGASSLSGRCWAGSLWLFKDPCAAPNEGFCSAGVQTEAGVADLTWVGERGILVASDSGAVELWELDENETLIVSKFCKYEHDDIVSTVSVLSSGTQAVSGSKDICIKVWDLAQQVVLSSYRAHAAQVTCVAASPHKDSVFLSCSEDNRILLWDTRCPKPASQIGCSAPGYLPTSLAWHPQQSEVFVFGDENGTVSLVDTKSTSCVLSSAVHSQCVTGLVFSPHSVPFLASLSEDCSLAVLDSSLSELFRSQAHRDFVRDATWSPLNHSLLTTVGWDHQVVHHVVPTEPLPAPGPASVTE
row,SMILES,IC50 [nM]
1,O=C(NC[C@H](O)CN1CCc2ccccc2C1)c1ccc2[nH]ccc2c1 [Compound 270],1000 to 10000
2,O=C(NCC(O)CN1CCc2ccccc2C1)c1ncc[nH]1 (stereo not shown) [Compound 170],101 to 1000
3,O=C(NC[C@H](O)CN1CCc2ccccc2C1)c1ccc2[nH]cnc2c1 [Compound 294],101 to 1000
4,CS(=O)(=O)N1CCC(Oc2ccc(C(=O)NCC(O)CN3CCc4ccccc4C3)cc2)C1 (stereo not shown) [Compound 198],< 100
5,O=C(NCC(O)CN1CCc2ccccc2C1)c1ccc(NC2CCNCC2)cc1 (stereo not shown) [Compound 138],< 100
6,CC(=O)N1CCC(Nc2cc(C(=O)NC[C@H](O)CN3CCc4ccccc4C3)ncn2)C1 (stereo partly shown) [Compound 210],< 100
7,O=C(NC[C@H](O)CN1CCc2ccccc2C1)c1ccc2ncccc2c1 [Compound 220],< 100
8,O=C(NCC(O)CN1CCc2ccccc2C1)c1cccc(NC2CCCOC2)c1 (stereo not shown) [Compound 60],101 to 1000
9,O=C(NCC(O)CN1CCc2ccccc2C1)c1cccc(OC2CCNC2)c1 (stereo not shown) [Compound 119],< 100
10,O=C(NC[C@H](O)CN1CCc2ccccc2C1)c1n[nH]c2ccccc12 [Compound 242],< 100
11,O=C(NCC(O)CN1CCc2ccccc2C1)c1ccc(OC2CCN(CC(F)(F)F)CC2)cc1 (stereo not shown) [Compound 109],< 100
12,O=C(NCC(O)CN1CCc2ccccc2C1)c1cccc(C2CCOC2)c1 (stereo not shown) [Compound 154],< 100
13,O=C(NCC(O)CN1CCc2ccccc2C1)c1ccc(OC2CCN(CC(F)(F)F)C2)cc1 (stereo not shown) [Compound 199],< 100
14,CC(C)N1CCC(Nc2cccc(C(=O)NCC(O)CN3CCc4ccccc4C3)c2)C1 (stereo not shown) [Compound 101],< 100
15,CS(=O)(=O)N1CC[C@@H](Nc2cccc(C(=O)NC[C@H](O)CN3CCc4ccccc4C3)c2)C1 [Compound 267],< 100
16,O=C(NC[C@H](O)CN1CCc2ccccc2C1)c1ccnc(NCC2CCCCN2)c1 (stereo partly shown) [Compound 237],< 100
17,O=C(NC[C@H](O)CN1CCc2ccccc2C1)c1cncc(NC2CCN(CC(F)(F)F)CC2)c1 [Compound 300],< 100
18,O=C(NC[C@H](O)CN1CCc2ccccc2C1)c1ccc2c(c1)CCO2 [Compound 243],< 100

row,SMILES,IC50 [nM]
1,O=C(NC[C@@H](O)CN1CCc2ccccc2C1)c1ccccc1 [Compound 4],1000 to 10000
2,CC1CC(Nc2cccc(C(=O)NC[C@@H](O)CN3CCc4ccccc4C3)c2)CC(C)O1 (stereo partly shown) [Compound 153],< 100
3,O=C(NC[C@H](O)CN1CCc2ccccc2C1)c1ccnc(NCC2CCNCC2)c1 [Compound 235],< 100
4,CS(=O)(=O)N1CCC(Nc2cccc(C(=O)NCC(O)CN3CCc4ccccc4C3)c2)CC1 (stereo not shown) [Compound 125],< 100
5,O=C(NC[C@H](O)CN1CCc2ccccc2C1)c1cccc(NC2CCOC2)c1 (stereo partly shown) [Compound 80],< 100
6,NCCNc1cc(C(=O)NC[C@H](O)CN2CCc3ccccc3C2)ccn1 [Compound 320],< 100
7,CN1CCOC(CNc2cc(C(=O)NC[C@H](O)CN3CCc4ccccc4C3)ccn2)C1 (stereo partly shown) [Compound 265],< 100
8,"O=C(NCC(O)CN1CCc2ccccc2C1)c1cccc(CNC2CCOCC2)c1 (stereo not shown) [Compound 15, N-(3-(3,4-dihydroisoquinolin-2(1H)-yl)-2-hydroxypropyl)-3-(((tetrahydro-2H-pyran-4-yl)amino)methyl)benzamide]",< 100
9,CN1CCC(Nc2ccc(C(=O)NCC(O)CN3CCc4ccccc4C3)cc2)CC1 (stereo not shown) [Compound 139],< 100
10,O=C(NCC(O)CN1CCc2ccccc2C1)c1ccnc(NC2CCOCC2)n1 (stereo not shown) [Compound 62],< 100
11,O=C(NCC(O)CN1CCc2ccccc2C1)c1cccc(NCCCO)c1 (stereo not shown) [Compound 87],1000 to 10000
12,O=C(NCC(O)CN1CCc2ccccc2C1)c1ccc(CN2CCOCC2)cc1 (stereo not shown) [Compound 145],< 100
13,Cn1ccnc1C(=O)NCC(O)CN1CCc2ccccc2C1 (stereo not shown) [Compound 171],< 100
14,CN1CCC(Nc2cccc(C(=O)NCC(O)CN3CCc4ccccc4C3)c2)CC1 (stereo not shown) [Compound 123],< 100
15,O=C(NCC(O)CN1CCc2ccccc2C1)c1cc(Cl)cc(NC2CCOCC2)c1 (stereo not shown) [Compound 64],< 100
16,O=C(NC[C@H](O)CN1CCc2ccccc2C1)c1c(O)ccc2ccccc12 [Compound 327],101 to 1000
17,O=C(NC[C@@H](O)CN1CCc2ccccc2C1)c1cccc(NC2CCOC2)c1 (stereo partly shown) [Compound 81],< 100
18,CNC(=O)CN1CCN(Cc2cccc(C(=O)NCC(O)CN3CCc4ccccc4C3)c2)CC1 (stereo not shown) [Compound 173],< 100

# Other lines, results leading:
row,IC50 [nM],SMILES
1,< 100,O=C(NC[C@H](O)CN1CCc2ccccc2C1)c1cccc(OC2CCOCC2)c1 [Compound 82]
2,< 100,O=C(O)CCCN1CCN(Cc2cccc(C(=O)NCC(O)CN3CCc4ccccc4C3)c2)CC1 (stereo not shown) [Compound 158]
3,< 100,O=C(NCC(O)CN1CCc2ccccc2C1)c1cccc(OC2CCN(CC(F)(F)F)C2)c1 (stereo not shown) [Compound 137]
4,< 100,O=C(NC[C@H](O)CN1CCc2ccccc2C1)c1cccc2c1OCCO2 [Compound 249]
5,< 100,"O=C(NCC(O)CN1CCc2ccccc2C1)c1cccc(-c2ccncc2)c1 (stereo not shown) [Compound 9, N-(3-(3,4-dihydroisoquinolin-2(1H)-yl)-2-hydroxypropyl)-3-(pyridin-4-yl)benzamide]"
6,< 100,CN(C)C(=O)CN1CCN(Cc2cccc(C(=O)NCC(O)CN3CCc4ccccc4C3)c2)CC1 (stereo not shown) [Compound 174]
7,< 100,CN1CCN(Cc2cccc(C(=O)NCC(O)CN3CCc4ccccc4C3)c2)C(CO)C1 (stereo not shown) [Compound 115]
8,< 100,O=C(NC[C@H](O)CN1CCc2ccccc2C1)c1ccnc(NC2CCOC2)c1 (stereo partly shown) [Compound 306]
9,< 100,O=C(NCC(O)CN1CCc2ccccc2C1)c1ccc2ncccc2c1 (stereo not shown) [Compound 68]
10,< 100,CS(=O)(=O)N1CCC(Nc2cncc(C(=O)NC[C@H](O)CN3CCc4ccccc4C3)c2)CC1 [Compound 301]
11,< 100,NC(=O)CN1CCN(Cc2cccc(C(=O)NCC(O)CN3CCc4ccccc4C3)c2)CC1 (stereo not shown) [Compound 172]
12,< 100,O=C(NC[C@H](O)CN1CCc2ccccc2C1)c1ccnc(NC2CCN(CC(F)(F)F)C2)c1 (stereo partly shown) [Compound 226]
13,< 100,O=C(NCC(O)CN1CCc2ccccc2C1)c1cccc(CC2CCOCC2)c1 (stereo not shown) [Compound 59]
14,< 100,O=C(NCC(O)CN1CCc2ccccc2C1)c1ccc(F)c(NC2CCOCC2)c1 (stereo not shown) [Compound 65]
15,< 100,O=C(NC[C@H](O)CN1CCc2ccccc2C1)c1nccc2ccccc12 [Compound 272]
16,< 100,O=C(NC[C@H](O)CN1CCc2ccccc2C1)c1ccnc(OC2CCN(CC(F)(F)F)CC2)c1 [Compound 203]
17,< 100,NC(=O)CNCCOc1cccc(C(=O)NCC(O)CN2CCc3ccccc3C2)c1 (stereo not shown) [Compound 222]
18,< 100,CC(=O)N1CCC(Oc2cc(C(=O)NC[C@H](O)CN3CCc4ccccc4C3)ncn2)CC1 [Compound 287]
19,< 100,"O=C(NCC(O)CN1CCc2ccccc2C1)c1cncc(NC2CCOCC2)c1 (stereo not shown) [Compound 54, N-(3-(3,4-dihydroisoquinolin-2(1H)-yl)-2-hydroxypropyl)-5-((tetrahydro-2H-pyran-4-yl)amino)nicotinamide]"
20,< 100,O=C(NC[C@H](O)CN1CCc2ccccc2C1)c1ccc2cc(O)ccc2c1 [Compound 318]
21,< 100,O=C(NC[C@H](O)CN1CCc2ccccc2C1)c1ccnc(NCc2ccccn2)c1 [Compound 191]
22,< 100,O=C(NC[C@@H](O)CN1CCc2ccccc2C1)c1cc(NC2CCOCC2)ncn1 [Compound 185]

# From patent US9675614B2, “PRMT5 inhibitors and uses thereof” (Epizyme, Inc., priority 2012, dated 2017)
